One assay has as its system HS 578T. Description: NCI-60 SRB assay, HS 578T (Breast Cancer). To be noted: 10 µM, 48 h; for G%: growth vs untreated control. Type of assay: cell-based, human. Here is the method:
(§1) Primary anticancer assay was performed on a panel of 60 human cancer cell lines derived from nine neoplastic diseases, in accordance with the protocol of the Drug Evaluation Branch, National Cancer Institute, Bethesda, Maryland, USA[22]. Cells were incubated with tested compounds at 10 µM for 48 h. The growth percentage was evaluated spectrophotometrically using a protein binding dye, SRB. Results for each tested compound were reported as the percent of growth of treated cells when compared to untreated control cells.
(§2) To better compare the activity profile of these two series of compounds, compounds 5 and 8 were selected and then evaluated towards a panel of sixty cancer cell lines corresponding to nine different cancer types, i.e. leukaemia, melanoma, as well as lung, colon, central nervous system, ovarian, renal, prostate and breast cancers (NCI evaluation). Indeed, it is now well established that the growth inhibitory patterns of anticancer drugs against the NCI-60 cell line panel correlated well with their modes of action. For example, compounds that bind to tubulin have similar growth inhibition patterns regardless of which site on tubulin they bind[30]. […] Compounds were tested using the sulforhodamine B (SRB) assay that provides a direct cell density index. The amount of dye incorporated by the cells increases with the increase of the total protein biomass. Cells were incubated for 48 h with compounds at 10 µM concentration, then cell growth was evaluated spectrophotometrically and presented as the percent of untreated control cells. Values of the most sensitive cell lines were compared to those obtained with JMV5038 (Figure 4, for all data see SI).
On the technique in general: Sulforhodamine B stains cellular protein and so reports cell mass.

A further assay deals with UACC-62. Briefly: NCI-60 SRB assay, UACC-62 (Melanoma). Type of assay: cell-based, human. To be noted: 10 µM, 48 h; for G%: growth vs untreated control. Here is the method:
as §1, §2

For assay [1], the system named is MDA-MB-435 melanoma cells. Description: Neutral red uptake (NRU) viability assay, MDA-MB-435. To be noted: Homo sapiens, MDA-MB-435; NRU assay, 72 h, mean ± SD of three experiments. Type of assay: cell-based, human. Here is the method:
(§3) Melanoma human cancer cell line (A375 and MDA-MB-435) were obtained from ATCC. The NIH-3T3 cell line was generously gifted by the ANSM (French National Agency for Medicines and Health Products Safety, Vendargues, France). Cells were cultured in Dulbecco’s Modified Eagle Medium (DMEM, Sigma Aldrich) supplemented with 10% heat-inactivated foetal calf serum (FCS, Gibco), 2 mM glutamax (Gibco), 100 IU/mL penicillin G sodium (Sigma Aldrich), 100 lU/mL streptomycin sulphate (Sigma Aldrich). The cells were allowed to grow at 37 °C in a fully humidified atmosphere containing 5% CO2.
(§4) A viability assay was used to evaluate the cytotoxic activity on A375 and MDA-MB-435 melanoma cells as previously described. According to OCDE/ICCVAM guidance n°129, NRU assay was also used to evaluate the toxicity on the non-cancerous NIH-3T3 cells. Cells were seeded at a final concentration of 2000 cells/well (A375), 3000 cells/well (NIH-3T3) or 7500 cells/well (MDA-MB-435) in 96-well microtiter plates for 24 h. Then, cells were exposed to two negative controls (1% DMSO in culture medium (vehicle) and culture medium alone), or to different compounds freshly dissolved in DMSO, in a range of concentration from 0.01 to 40 µM (six wells per concentration). After 72 h of incubation, cells were stained with new medium containing 50 µg/mL of neutral red (3-amino-7-dimethylamino-2-methylphenazine hydrochloride, Sigma Aldrich) at 37 °C for 2 h. The neutral red medium solution was then removed and the wells were washed with PBS. Finally, 100 µL of solution containing ethanol, acetic acid and water (50/1/49 v/v/v respectively) were added into the wells and the absorbance was measured at 540 nm using the microplate reader 352 Multiscan MS (Labsystems). Cell survival rates were normalised to the absorbance values of untreated control cells. IC50 was obtained using a logistic regression model on Graphpad Prism 5.0 software. Results are given as the mean ± standard deviation (SD) of three independent experiments. Statistical analysis was performed using the Student’s t-test.

The test system of a further assay is MDA-MB-435 cells. Briefly: Immunofluorescent staining for actin localisation (confocal microscopy). Type of assay: cell-based, human. To be noted: 5 µM, 20 h. The protocol: To evaluate the effect of compound treatment on cell morphology and stress actin fibres, an immunofluorescence imaging of cells was performed as previously described. MDA-MB-435 cells were seeded on cover slips in petri dishes and allowed to grow for 24 h. After cell growth, cells were treated with the vehicule (control cells) or with JMV5038, compound 5 or 8 at 5 µM for 20 h. Then cells were fixed using Antigenfix for 20 min and permeabilized using 0.2% Triton X-100 for 4 min at room temperature. Actin was stained using a primary human anti-actin antibody (made from mouse) and a secondary Alexa Fluor 568-conjugated goat anti-mouse antibody. Both of them were incubated 1 h at room temperature. Nuclei were counter-stained using Hoechst 33342. Representative images were obtained using a Zeiss LSM 780 inverted confocal microscopy. Confocal fluorescence microscopy was performed on fixed cells under a 543 nm wavelength excitation for AlexaFluor568, and 405 nm for nuclei, and visualised at 620 nm (red) and 450 nm (blue) respectively.
In our previous study, we reported that JMV5038 led to changes in the cell morphology, concomitant with a disruption of the actin network. Morphological changes in MDA-MB-435 cells induced by compounds 5 or 8 were investigated and compared to those induced by JMV5038. For this purpose, fixed and actin immunostained MDA-MB-435 cells were imaged by confocal microscopy (Figure 6). Control cells treated with DMSO (20 h, 5 µM concentration) were spread and the tensile forces of actin stress fibres stretched the cell-adhesive phenotype.

Assay [2] has as its system NIH-3T3 non-cancerous cells. Description: Neutral red uptake (NRU) toxicity assay, NIH-3T3. Type of assay: cell-based. To be noted: non-cancerous mouse fibroblasts. Here is the method: as §3, §4
Then, all active compounds on the two melanoma cell lines (IC50 < 40 µM) were assessed on the NIH-3T3 mouse fibroblast cell line, in order to check the toxicity of our compounds on non-cancerous cells. […] As a possible modification of the mechanism of action was hypothesised for these two derivatives (see above), this phenomenon could probably be also correlated with the cytotoxicity observed on the NIH-3T3 cell line.

The next assay deals with MALME-3M. Description: NCI-60 SRB assay, MALME-3M (Melanoma). Type of assay: cell-based, human. To be noted: 10 µM, 48 h; for G%: growth vs untreated control. The protocol: as §1, §2
The next assay deals with SK-MEL-2. Description: NCI-60 SRB assay, SK-MEL-2 (Melanoma). Type of assay: cell-based, human. To be noted: 10 µM, 48 h; for G%: growth vs untreated control. Here is the method: as §1, §2
The test system of a further assay is CCRF-CEM. Briefly: NCI-60 SRB assay, CCRF-CEM (Leukemia). To be noted: 10 µM, 48 h; for G%: growth vs untreated control. Type of assay: cell-based, human. The protocol:
as §1, §2

The subject of another assay is HCT-116. Briefly: NCI-60 SRB assay, HCT-116 (Colon Cancer). Type of assay: cell-based, human. To be noted: 10 µM, 48 h; for G%: growth vs untreated control. Here is the method:
as §1, §2

The subject of another assay is RPMI-8226. Description: NCI-60 SRB assay, RPMI-8226 (Leukemia). To be noted: 10 µM, 48 h; for G%: growth vs untreated control. Type of assay: cell-based, human. The protocol: as §1, §2

The structures appear in SMILES notation.

One may read the IC50 as the concentration needed to halve the response being measured. A lower IC50 goes with inhibition by little substance. For the compound `C[C@@H]1NC(c2ccc(N=[N+]=[N-])cc2)=Nc2nc3ccccn3c2C1=O` [Compound 5, (4S)-4-methyl-2-(4-azidophenyl)-3,4-dihydro-5H-pyrido[1’,2’:1,2]imidazo[4,5-d][1,3]diazepin-5-one], the “Mean G% - G%” value in the assay on HS 578T is reported as -10,95%; in the assay with UACC-62, 17,97%; in the assay with MALME-3M it was 3,28%; with SK-MEL-2 it was -9,12%; in the assay on CCRF-CEM, -12,13%; in the assay on HCT-116, -2,45%. The G% in the assay on HS 578T is 96,21%; with UACC-62 it was 67,29%; with MALME-3M it was 81,98%; in the assay with SK-MEL-2, 94,38%; in the assay with CCRF-CEM, 97,39%; in the assay with HCT-116 it was 87,71%. The 50% inhibitory concentration (IC50) in assay [1] is 4.75 ± 0.21 µM; in assay [2] (Mus musculus, NIH3T3, 72 h), greater than 40 µM. In addition, the “morphological changes / actin network” value in the assay on MDA-MB-435 cells was “disorganisation of the actin cytoskeleton”.
Turning to `[N-]=[N+]=NCCCC[C@@H]1NC(c2ccc(Br)cc2)=Nc2nc3ccccn3c2C1=O` [Compound 16, (4S)-4-(4-azidobutyl)-2-(4-bromophenyl)-3,4-dihydro-5H-pyrido[1’,2’:1,2]imidazo[4,5-d][1,3]diazepin-5-one], the “Mean G% - G%” value in the assay with HS 578T is given as -1,51%; in the assay with UACC-62, 11,94%; with MALME-3M, -22,73%; in the assay on SK-MEL-2 it was -16,61%; in the assay with CCRF-CEM it was -6,17%; with HCT-116 it was -1,04%. Further, the G% with HS 578T is 93,28%; in the assay with UACC-62, 79,83%; with MALME-3M, 114,50%; with SK-MEL-2 it was 108,38%; with CCRF-CEM, 97,94%; in the assay with HCT-116, 92,81%. Moreover, the half-maximal inhibitory concentration (IC50) in [1] is 4.12 ± 0.22 µM; in assay [2] (72 h) it was 9.9 ± 0.51 µM; in assay [2] (Mus musculus, NIH3T3, 72 h), roughly 10 µM.
Regarding `C[C@@H]1NC(c2csc3ccccc23)=Nc2nc3ccccn3c2C1=O` [Compound 8, (4S)-4-methyl-2-benzothiophen-3-yl-3,4-dihydro-5H-pyrido[1’,2’:1,2]imidazo[4,5-d][1,3]diazepin-5-one], the “Mean G% - G%” value with HS 578T is 15,40%; with UACC-62, -12,07%; in the assay on MALME-3M, -0,21%; with SK-MEL-2 it was -20,08%; with RPMI-8226 it was 24,51%; in the assay on HCT-116, 2,74%. In addition, the G% in the assay with HS 578T is on record as 59,47%; in the assay on UACC-62 it was 86,94%; in the assay with MALME-3M it was 75,08%; in the assay on SK-MEL-2 it was 94,95%; with RPMI-8226 it was 50,36%; in the assay with HCT-116, 72,13%. The 50% inhibitory concentration (IC50) in assay [1] is 10.12 ± 0.08 µM; in assay [2] (Mus musculus, NIH3T3, 72 h), greater than 40 µM. Further, the “morphological changes / actin network” value in the assay with MDA-MB-435 cells is listed as “disorganisation of the actin cytoskeleton”.
For `C[C@@H]1NC(c2ccc(Br)cc2)=Nc2nc3ccccn3c2C1=O` [JMV5038], the “Mean G% - G%” value was -17,10% in the assay with HS 578T; 5,01% in the assay on UACC-62; 2,49% with MALME-3M; 6,87% in the assay on SK-MEL-2; -25,20% with CCRF-CEM; -39,73% in the assay on RPMI-8226. In the assay with HCT-116, the “Mean G% - G%” value is reported as 25,02%. Also, the G% was 71,34% in the assay on HS 578T; 49,23% in the assay on UACC-62; 51,75% in the assay with MALME-3M; 47,37% in the assay with SK-MEL-2; 79,44% in the assay on CCRF-CEM; 93,97% in the assay with RPMI-8226. Also, the G% in the assay on HCT-116 is recorded as 29,22%. Moreover, the IC50 in assay [1] is 1.3 ± 0.53 µM; in assay [2] (Mus musculus, NIH3T3, 72 h), greater than 100 µM. In addition, the “morphological changes / actin network” value with MDA-MB-435 cells is recorded as “disorganisation of the actin cytoskeleton”.

(Values after publication PMC7170309, “Imidazopyridine-fused [1,3]diazepinones: modulations of positions 2 to 4 and their impacts on the anti-melanoma activity” (Journal of Enzyme Inhibition and Medicinal Chemistry, 2020).)
